{"source": "patent US11766470B2", "about": "“Manufacture, formulation and dosing of apraglutide” (VectivBio AG, priority 2020, dated 2023)", "tested_on": "healthy adult volunteers", "assay": "Multiple dose study in healthy volunteers (Examples 4 and 7), pharmacodynamics: plasma citrulline, Bristol stool scale, body weight", "format": "in vivo, human", "details": "for Highest mean citrulline value following the first weekly SC dose: after four days", "experimental": "The endogenous marker citrulline was selected to assess the pharmacodynamic effect of apraglutide. Citrulline was detected in all baseline and post-dose samples. Three baseline citrulline samples were obtained during two baseline visits between screening and the first dosing day and before dosing on the first dosing day. […] At baseline, the mean citrulline range was 5.3825-5.6207 μg/mL for placebo, 5.3900-6.2028 μg/mL for 1 mg apraglutide, 4.8983-5.3023 μg/mL for 5 mg apraglutide and 5.0730-5.4690 μg/mL for 10 mg apraglutide. In the placebo group, the mean citrulline concentration remained relatively stable over the trial, ranging from 4.9735 to 5.8253 μg/mL.\nIn short, the first contrast tested compared the mean Rpre-dose at the first time point (week 1) to the pooled mean Rpre-dose over all remaining time points (week 2 to 6). The second contrast compared the mean at week 2 to the pooled mean over week 3 to 6, etc. Testing continued until the contrast was not statistically significant. The mean Rpre-dose at week 6 for 10 mg against mean Rpre-dose over week 5 (0.8720, 95% CI: 0.1590; 1.5850 and p=0.0172) was statistically significant.\nBesides citrulline, the Bristol stool scale and body weight were assessed as pharmacodynamic endpoints. In contrast to citrulline and weight, the Bristol stool scale is a discrete variable. Subjects assessed their stool in the past 24 hours using the Bristol stool scale ranging from constipation (type 1) to diarrhea (type 7). No stool in the past 24 hours was recorded as zero. As two subjects (assigned to either 1 or 5 mg) reported no stool preceding the first dose, the screening Bristol stool scale score was also taken into account when determining the baseline Bristol stool scale score.\nCitrulline, BSS and weight data are analyzed with a mixed model analysis of variance with fixed factors treatment, time and treatment by time, random factor subject, and the average prevalue as covariate. The average pre-value was calculated from all pre-values after screening and before dosing, except for BSS, where the screening value was also used to calculate the average baseline.\nFor all pharmacodynamic endpoints (citrulline, Bristol stool scale and weight), the pre-value has been used as covariate. The average pre-value was calculated from all pre-values after screening and before dosing, except for the Bristol stool scale, where the screening value was also used to calculate the average baseline. The average pre-value of citrulline was also used as covariate in the MCP-MOD, except in the Sigmoid Emax model. This was addressed by subtracting the pre-value times the slope of the linear model of the MCP part from the values of week 6.", "key": {"[1]": {"details": "1 mg, over the whole trial period"}}, "note": "Square brackets hold non-standard residues; d marks the D form. Peptide text beside a SMILES is read from it. ξ: configuration not given here. Ile(3ξ) = CCC(C)[C@H](N)C(=O)O; Thr(3ξ) = CC(O)[C@H](N)C(=O)O; Nle = CCCC[C@H](N)C(=O)O", "data": [{"smiles": "CCCC[C@H](NC(=O)[C@H](CCC(=O)O)NC(=O)[C@H](CC(=O)O)NC(=O)[C@H](CO)NC(=O)[C@H](Cc1ccccc1)NC(=O)[C@H](CO)NC(=O)CNC(=O)[C@H](CC(=O)O)NC(=O)CNC(=O)[C@@H](N)Cc1c[nH]cn1)C(=O)N[C@H](Cc1ccccc1)C(=O)N[C@H](C(=O)N[C@H](C(=O)N[C@@H](CC(C)C)C(=O)N[C@@H](CC(=O)O)C(=O)N[C@@H](CC(C)C)C(=O)N[C@@H](CC(C)C)C(=O)N[C@@H](C)C(=O)N[C@@H](C)C(=O)N[C@@H](CCCNC(=N)N)C(=O)N[C@@H](CC(=O)O)C(=O)N[C@@H](Cc1ccccc1)C(=O)N[C@H](C(=O)N[C@@H](CC(N)=O)C(=O)N[C@@H](Cc1c[nH]c2ccccc12)C(=O)N[C@@H](CC(C)C)C(=O)N[C@H](C(=O)N[C@@H](CCC(N)=O)C(=O)N[C@H](C(=O)N[C@@H](CCCCN)C(=O)N[C@H](C(=O)N[C@H](C(=O)N[C@@H](CC(=O)O)C(N)=O)C(C)O)C(C)CC)C(C)O)C(C)CC)C(C)CC)C(C)CC)C(C)O", "note": "(stereo partly drawn) [apraglutide, L-histidyl-glycyl-L-aspartyl-glycyl-L-seryl-L-phenylalanyl-L-seryl-L-aspartyl-L-glutamyl-L-norleucyl-D-phenylalanyl-L-threonyl-Lisoleucyl-L-leucyl-L-aspartyl-L-leucyl-L-leucyl-L-alanyl-L-alanyl-L-arginyl-L-aspartyl-L-phenylalanyl-L-isoleucyl-L-asparaginyl-Ltryptophanyl-L-leucyl-L-isoleucyl-L-glutaminyl-L-threonyl-L-lysyl-L-isoleucyl-L-threonyl-Laspartic acid amide] (H-HGDGSFSDE[Nle][dF][Thr(3ξ)][Ile(3ξ)]LDLLAARDF[Ile(3ξ)]NWL[Ile(3ξ)]Q[Thr(3ξ)]K[Ile(3ξ)][Thr(3ξ)]D-NH2)", "values": [{"measurement": "Difference between mean Rmax over the whole trial and Rmax after last dose", "setting": "1 mg", "result": 0.1016, "unit": "µg/mL"}, {"measurement": "Bristol stool scale with zeroes set to missing, estimate of the difference", "setting": "1 mg - 5 mg", "result": 0.2}, {"measurement": "Bristol stool scale, estimate of the difference", "setting": "1 mg - 5 mg", "result": "−0.1"}, {"measurement": "Citrulline, estimate of the difference", "setting": "1 mg - 5 mg", "result": 0.9429, "unit": "µg/mL"}, {"measurement": "Weight, estimate of the difference", "setting": "1 mg - 5 mg", "result": -0.115, "unit": "kg"}, {"measurement": "Bristol stool scale with zeroes set to missing, estimate of the difference", "setting": "1 mg - 10 mg", "result": 0.1}, {"measurement": "Bristol stool scale, estimate of the difference", "setting": "1 mg - 10 mg", "result": 0.3}, {"measurement": "Citrulline, estimate of the difference", "setting": "1 mg - 10 mg", "result": 1.3198, "unit": "µg/mL"}, {"measurement": "Weight, estimate of the difference", "setting": "1 mg - 10 mg", "result": 0.419, "unit": "kg"}, {"measurement": "No stool in the past 24 hours, number of reports", "setting": "1 mg group (2 subjects)", "result": 6, "unit": "times"}, {"measurement": "Highest mean citrulline value following the first weekly SC dose", "setting": "1 mg", "result": 6.3920, "unit": "µg/mL"}, {"measurement": "Citrulline Rtmax, median", "setting": "1 mg, after last dose 6", "result": 2.0, "unit": "days"}, {"measurement": "Citrulline Rpre-dose, arithmetic mean ± SD", "setting": "1 mg, last dose 1", "result": "5.8075 ± 1.3328", "unit": "µg/mL"}, {"measurement": "Citrulline Rpre-dose, geometric mean", "setting": "1 mg, last dose 1", "result": 5.6723, "unit": "µg/mL"}, {"measurement": "Citrulline Rpre-dose, arithmetic mean ± SD", "setting": "1 mg, last dose 2", "result": "6.2605 ± 1.2331", "unit": "µg/mL"}, {"measurement": "Citrulline Rpre-dose, geometric mean", "setting": "1 mg, last dose 2", "result": 6.1526, "unit": "µg/mL"}, {"measurement": "Citrulline Rpre-dose, arithmetic mean ± SD", "setting": "1 mg, last dose 3", "result": "6.4913 ± 1.8297", "unit": "µg/mL"}, {"measurement": "Citrulline Rpre-dose, geometric mean", "setting": "1 mg, last dose 3", "result": 6.2752, "unit": "µg/mL"}, {"measurement": "Citrulline Rpre-dose, arithmetic mean ± SD", "setting": "1 mg, last dose 4", "result": "6.0050 ± 1.5790", "unit": "µg/mL"}, {"measurement": "Citrulline Rpre-dose, geometric mean", "setting": "1 mg, last dose 4", "result": 5.8213, "unit": "µg/mL"}, {"measurement": "Citrulline Rpre-dose, arithmetic mean ± SD", "setting": "1 mg, last dose 5", "result": "6.4128 ± 1.8032", "unit": "µg/mL"}, {"measurement": "Citrulline Rpre-dose, geometric mean", "setting": "1 mg, last dose 5", "result": 6.2097, "unit": "µg/mL"}, {"measurement": "Citrulline Rmax, arithmetic mean ± SD", "setting": "1 mg, last dose 6", "result": 7.1702, "unit": "µg/mL"}, {"measurement": "Citrulline Rmax, geometric mean", "setting": "1 mg, last dose 6", "result": 7.0069, "unit": "µg/mL"}, {"measurement": "Citrulline Rpre-dose, arithmetic mean ± SD", "setting": "1 mg, last dose 6", "result": "6.3120 ± 1.6694", "unit": "µg/mL"}, {"measurement": "Citrulline Rpre-dose, geometric mean", "setting": "1 mg, last dose 6", "result": 6.1166, "unit": "µg/mL"}, {"measurement": "Citrulline Rmax, arithmetic mean ± SD", "setting": "1 mg, last dose 6, listed as Apraglutide", "result": "7.1702 ± 1.6611", "unit": "µg/mL"}, {"measurement": "Citrulline Rmax, arithmetic mean ± SD", "setting": "[1]", "result": "7.2718 ± 1.6959", "unit": "µg/mL"}, {"measurement": "Citrulline Rmax, geometric mean", "setting": "[1]", "result": 7.1036, "unit": "µg/mL"}, {"measurement": "Citrulline Rtmax, median", "setting": "1 mg, whole trial period, from first dose", "result": 35.9, "unit": "days"}, {"measurement": "Difference between mean Rmax over the whole trial and Rmax after last dose", "setting": "5 mg", "result": 0.0973, "unit": "µg/mL"}, {"measurement": "Bristol stool scale with zeroes set to missing, estimate of the difference", "setting": "5 mg - 10 mg", "result": "−0.0"}, {"measurement": "Bristol stool scale, estimate of the difference", "setting": "5 mg - 10 mg", "result": 0.5}, {"measurement": "Citrulline, estimate of the difference", "setting": "5 mg - 10 mg", "result": 0.3769, "unit": "µg/mL"}, {"measurement": "Weight, estimate of the difference", "setting": "5 mg - 10 mg", "result": 0.534, "unit": "kg"}, {"measurement": "No stool in the past 24 hours, number of reports", "setting": "5 mg group (4 subjects)", "result": 13, "unit": "times"}, {"measurement": "Highest mean citrulline value following the first weekly SC dose", "setting": "5 mg", "result": 7.1933, "unit": "µg/mL"}, {"measurement": "Citrulline Rtmax, median", "setting": "5 mg, after last dose 6", "result": 3.9, "unit": "days"}, {"measurement": "Citrulline Rpre-dose, arithmetic mean ± SD", "setting": "5 mg, last dose 1", "result": "6.7695 ± 1.5288", "unit": "µg/mL"}, {"measurement": "Citrulline Rpre-dose, geometric mean", "setting": "5 mg, last dose 1", "result": 6.5967, "unit": "µg/mL"}, {"measurement": "Citrulline Rpre-dose, arithmetic mean ± SD", "setting": "5 mg, last dose 2", "result": "7.0082 ± 1.1330", "unit": "µg/mL"}, {"measurement": "Citrulline Rpre-dose, geometric mean", "setting": "5 mg, last dose 2", "result": 6.9208, "unit": "µg/mL"}, {"measurement": "Citrulline Rpre-dose, arithmetic mean ± SD", "setting": "5 mg, last dose 3", "result": "6.6155 ± 1.2790", "unit": "µg/mL"}, {"measurement": "Citrulline Rpre-dose, geometric mean", "setting": "5 mg, last dose 3", "result": 6.5109, "unit": "µg/mL"}, {"measurement": "Citrulline Rpre-dose, arithmetic mean ± SD", "setting": "5 mg, last dose 4", "result": "6.6227 ± 1.2247", "unit": "µg/mL"}, {"measurement": "Citrulline Rpre-dose, geometric mean", "setting": "5 mg, last dose 4", "result": 6.5313, "unit": "µg/mL"}, {"measurement": "Citrulline Rpre-dose, arithmetic mean ± SD", "setting": "5 mg, last dose 5", "result": "6.8307 ± 1.2369", "unit": "µg/mL"}, {"measurement": "Citrulline Rpre-dose, geometric mean", "setting": "5 mg, last dose 5", "result": 6.7248, "unit": "µg/mL"}, {"measurement": "Citrulline Rmax, arithmetic mean ± SD", "setting": "5 mg, last dose 6", "result": 8.1577, "unit": "µg/mL"}, {"measurement": "Citrulline Rmax, geometric mean", "setting": "5 mg, last dose 6", "result": 8.0024, "unit": "µg/mL"}]}]}
